Values after ≈ are worked out from the molar mass of the structure shown.
Tests used:
Format in all cases: cell-based
[1] = test system: Botrytis cinerea; assay: 96-well microtiter fungal growth assay;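 for Mean percent fungal growth inhibition of Botrytis cinerea: percent relative to untreated positive growth controls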
From the text: (§1) Pathogen collection. Isolates of Colletotrichum acutatum Simmonds, Colletotrichum fragariae Brooks, and Colletotrichum gloeosporioides (Penz.) Penz. & Sacc. in Penz. were obtained from B. J. Smith, USDA, ARS, Small Fruit Research Station, Poplarville, Mass. Colletotrichum fragariae (isolate CF63), C. acutatum (isolate CAGoff), and C. gloeosporioides (isolate CG162) were used for all pathogen and bioautography studies. Isolate CF63 is one of the most virulent isolates at infecting strawberry plants and inducing both crown and fruit rot (Smith and Black, 1990). CF63, CAGoff, and CG162 were used as standard test isolates because of our extensive knowledge of these isolates and their known fungicide sensitivity profiles in both bioautography and microtiter formats. The three Colletotrichum species were isolated from strawberry (Fragaria xananassa Duchesne). Botrytis cinerea Pers.:Fr, was isolated from commercial grape (Vitis vinifera L.) and Fusarium oxysporum Schlechtend:Fr from orchid (Cynoches sp.) by David E. Wedge, USDA ARS Natural Products Utilization Research Unit. Phomopsis viticola (Sacc.) and P. obscurans (Ellis & Everh.) Sutton were from Mike A. Ellis, Ohio State University, Wooster, Ohio. Fungi were grown on potato-dextrose agar (PDA, Difco, Detroit Mich.) in 9 cm petri dishes and incubated in a growth chamber at 24±2° C. and under cool-white fluorescent lights ([…]·m^−2·sec^−1 light) with 12-h photoperiod.
(§2) Inoculum preparation. Conidia were harvested from 7–10 day-old cultures by flooding plates with 5 mL of sterile distilled water and dislodging conidia by softly brushing the colonies with an L-shaped glass rod. Conidial suspensions were filtered through sterile miracloth (Calbiochem-Novabiochem Corp., La Jolla Calif.) to remove mycelia. Conidia concentrations were determined photometrically, from a standard curve based on the absorbance at 625 nm and suspensions were then adjusted with sterile distilled water to a concentration of 1.0×10^6 conidia/mL.
(§3) Microtiter assay. A standardized 96-well microtiter plate assay developed for discovery of natural product fungicidal agents. A 96-well microtiter assay was used to determine sensitivity of B. cinerea, C. acutatum, C. fragariae, C. gloeosporioides, F. oxysporum, Phomopsis viticola, and P. obscurans to the various antifungal agents in comparison with known fungicidal standards. Vinclozolin, captan, and thiabendazole, which represent three different modes of action, were used as standards in this experiment. Each fungus was challenged in a dose-response format using test compounds where the final treatment concentrations were 0.3, 3.0 and 30.0 μM. Microtiter plates (Nunc MicroWell, untreated; Roskilde, Denmark) were covered with a plastic lid and incubated in a growth chamber at 24±1 C and 12 h photoperiod under 60±5 μmol light. Growth was then evaluated by measuring absorbance of each well at 620 nm using a microplate photometer (Packard Spectra Count, Packard Instrument Co., Downers Grove, Ill.).
(§4) Microbioassay Experimental Design. Chemical sensitivity of each fungus 96-well microtiter assay is used to determine sensitivity of B. cinerea, C. acutatum, C. fragariae, C. gloeosporioides, F. oxysporum, Phomopsis viticola, and P. obscurans. Each chemical is evaluated in duplicate at each dose (0.3, 3.0 and 30.0 μM) and repeated twice in time. Sixteen wells containing broth and inoculum serves as positive controls, eight wells containing solvent at the appropriate concentration and broth without inoculum are used as negative controls. Mean absorbance values and standard errors is used to evaluate fungal growth at 48 hrs and 72 hrs except for P. obscurans and P. viticola the data are recorded at 120 hrs. […] Treatments are arranged as a split-plot design replicated twice in time. Whole-plots were fungal isolates and sub-plots are chemicals. Each dose level and response time is analyzed separately. […]

[2] = test system: Colletotrichum gloeosporioides; assay: 96-well microtiter fungal growth assay;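 for Mean percent fungal growth inhibition of Colletotrichum gloeosporoides: percent relative to untreated positive growth controls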
From the text: as §1, §2, §3, §4

[3] = test system: Fusarium oxysporum; assay: 96-well microtiter fungal growth assay;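 for Mean percent fungal growth inhibition of Fusarium oxysporum: percent relative to untreated positive growth controls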
From the text: as §1, §2, §3, §4

[4] = test system: Colletotrichum fragariae; assay: 96-well microtiter fungal growth assay;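 for Mean percent fungal growth inhibition of Colletotrichum fragariae: percent relative to untreated positive growth controls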
From the text: as §1, §2, §3, §4

[5] = test system: Colletotrichum acutatum; assay: 96-well microtiter fungal growth assay;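 for Mean percent fungal growth inhibition of Colletotrichum acutatum: percent relative to untreated positive growth controls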
From the text: as §1, §2, §3, §4

[6] = test system: M. intracellulare ATCC 23068; assay: In vitro antibacterial assay (modified method of Franzblau, Alamar Blue); settings: Mycobacterium intracellulare

For COC(/C=C/c1ccccc1)=C1\C(=O)C=C(C)C1=O [Compound 1, coruscanone A], the “Mean percent fungal growth inhibition of Botrytis cinerea” value ([1]; 0.3 μm, 48 hrs) was −7.3 ± 12.8%, the “Mean percent fungal growth inhibition of Botrytis cinerea” value ([1]; 0.3 μm, 72 hrs) was 28.1 ± 8.3% and the “Mean percent fungal growth inhibition of Botrytis cinerea” value ([1]; 3.0 μm, 48 hrs) was −45.2 ± 16.4%. The “Mean percent fungal growth inhibition of Botrytis cinerea” value ([1]; 3.0 μm, 72 hrs) was −15.7 ± 10.6%, the “Mean percent fungal growth inhibition of Botrytis cinerea” value ([1]; 30 μm, 48 hrs) was −69.6 ± 9.8% and the “Mean percent fungal growth inhibition of Botrytis cinerea” value ([1]; 30 μm, 72 hrs) was −88.4 ± 5.6%. For the same compound, the IC50 ([1]; Botrytis cinerea, 48 h, read-out: IC50 (growth inhibition)) was less than 1.55 µM, the “Mean percent fungal growth inhibition of Colletotrichum gloeosporoides” value ([2]; 0.3 μm, 48 hrs) was 37.7 ± 9.0% and the “Mean percent fungal growth inhibition of Colletotrichum gloeosporoides” value ([2]; 0.3 μm, 72 hrs) was 46.7 ± 3.9%. For the same compound, the “Mean percent fungal growth inhibition of Colletotrichum gloeosporoides” value ([2]; 3.0 μm, 48 hrs) was −79.9 ± 2.8%, the “Mean percent fungal growth inhibition of Colletotrichum gloeosporoides” value ([2]; 3.0 μm, 72 hrs) was −13.8 ± 3.7% and the “Mean percent fungal growth inhibition of Colletotrichum gloeosporoides” value ([2]; 30 μm, 48 hrs) was −95.2 ± 2.2%. The “Mean percent fungal growth inhibition of Colletotrichum gloeosporoides” value ([2]; 30 μm, 72 hrs) was −94.4 ± 1.6%, the IC50 ([2]; Colletotrichum gloeosporioides, C. gleoesporioides, 96-well microbioassay, read-out: IC50 (growth inhibition)) was less than 3.1 µM and the “Mean percent fungal growth inhibition of Fusarium oxysporum” value ([3]; 0.3 μm, 48 hrs) was 2.4 ± 4.7%. For the same compound, the “Mean percent fungal growth inhibition of Fusarium oxysporum” value ([3]; 0.3 μm, 72 hrs) was 12.2 ± 2.1%, the “Mean percent fungal growth inhibition of Fusarium oxysporum” value ([3]; 3.0 μm, 48 hrs) was −76.9 ± 1.6% and the “Mean percent fungal growth inhibition of Fusarium oxysporum” value ([3]; 3.0 μm, 72 hrs) was −24.2 ± 3.3%. For the same compound, the “Mean percent fungal growth inhibition of Fusarium oxysporum” value ([3]; 30 μm, 48 hrs) was −99.3 ± 0.2%, the “Mean percent fungal growth inhibition of Fusarium oxysporum” value ([3]; 30 μm, 72 hrs) was −98.9 ± 0.2% and the IC50 ([3]; Fusarium oxysporum, F. oxysporum, 96-well microbioassay, read-out: IC50 (growth inhibition)) was less than 12.5 µM. The “Mean percent fungal growth inhibition of Colletotrichum fragariae” value ([4]; 0.3 μm, 48 hrs) was −14.1 ± 10.8%, the “Mean percent fungal growth inhibition of Colletotrichum fragariae” value ([4]; 0.3 μm, 72 hrs) was −4.8 ± 5.0% and the “Mean percent fungal growth inhibition of Colletotrichum fragariae” value ([4]; 3.0 μm, 48 hrs) was −94.0 ± 1.9%. For the same compound, the “Mean percent fungal growth inhibition of Colletotrichum fragariae” value ([4]; 3.0 μm, 72 hrs) was −54.6 ± 18.7%, the “Mean percent fungal growth inhibition of Colletotrichum fragariae” value ([4]; 30 μm, 48 hrs) was −96.9 ± 1.9% and the “Mean percent fungal growth inhibition of Colletotrichum fragariae” value ([4]; 30 μm, 72 hrs) was −67.4 ± 18.3%. For the same compound, the IC50 ([4]; Colletotrichum fragariae, C. fragariae, 96-well microbioassay, read-out: IC50 (growth inhibition)) was less than 3.1 µM, the “Mean percent fungal growth inhibition of Colletotrichum acutatum” value ([5]; 0.3 μm, 48 hrs) was 49.7 ± 6.6% and the “Mean percent fungal growth inhibition of Colletotrichum acutatum” value ([5]; 0.3 μm, 72 hrs) was 38.0 ± 3.0%. The “Mean percent fungal growth inhibition of Colletotrichum acutatum” value ([5]; 3.0 μm, 48 hrs) was −73.1 ± 4.9%, the “Mean percent fungal growth inhibition of Colletotrichum acutatum” value ([5]; 3.0 μm, 72 hrs) was −21.8 ± 4.4% and the “Mean percent fungal growth inhibition of Colletotrichum acutatum” value ([5]; 30 μm, 48 hrs) was −95.8 ± 1.9%. For the same compound, the “Mean percent fungal growth inhibition of Colletotrichum acutatum” value ([5]; 30 μm, 72 hrs) was −97.6 ± 0.8%, the IC50 ([5]; Colletotrichum acutatum, C. acutatum, 96-well microbioassay, read-out: IC50 (growth inhibition)) was less than 3.1 µM and the IC50 ([6]; ATCC23068, read-out: IC50 (50% inhibitory concentration)) was 1.5 µg/mL (≈ 5.9 µM). It also gave an MIC ([6]; ATCC23068, M. intracellulare ATCC 23068) of 2.5 µg/mL (≈ 9.83 µM) and an MBC ([6]; ATCC23068, M. intracellulare ATCC 23068, read-out: MBC (Minimum Bactericidal Concentration)) of 5 µg/mL (≈ 19.7 µM).
